Results from ChEMBL document CHEMBL3997802, “Design, Synthesis, and Evaluation of Isaindigotone Derivatives To Downregulate c-myc Transcription via Disrupting the Interaction of NM23-H2 with G-Quadruplex” (J Med Chem, 2017).
Active and inactive are the calls of the source. The calls are words filed in the database; no cut-off is given here.

Columns and labels:
[1] = Inhibition of 5'-biotin-labeled c-Myc Pu18 G-quadruplex DNA (unknown origin) interaction with His-tagged NM23-H2 assessed as ratio of Kd for NM23-H2-DNA complex in presence of compound to Kd for […]-DNA complex in absence of compound at 20 uM preincubated with NM23-H2 for 1 hr followed by addition of DNA measured after overnight incubation by ELISA
[2] = Effect on NM23-H2 protein expression in mouse primary mesangial cells up to 8 uM by Western blot method; assay type: ADME, cell-based; conditions: primary mesangial cell
[3] = test system: SiHa; test: Effect on NM23-H2 protein expression in human SiHa cells up to 8 uM after 4 days by Western blot method; assay type: functional, cell-based
[4] = species on record: Homo sapiens; test: Inhibition of NM23-H2 binding to c-Myc G-quadruplex DNA in human SiHa cells assessed as effect on cyclin D3 protein expression by Western blot method; assay type: cell-based
[5] = test system: SiHa; test: Growth inhibition of human SiHa cells transfected with NM23-H2 siRNA up to 16 uM after 100 hrs by real time cellular analysis; assay type: functional, cell-based
[6] = biological target: T1, Cellular tumor antigen p53 (Mus musculus, UniProt P02340); test: Effect on p53 phosphorylation in mouse primary mesangial cells up to 8 uM by Western blot method; assay type: ADME
[7] = species on record: Homo sapiens; test: Inhibition of NM23-H2 binding to c-Myc promoter DNA in human SiHa cell nuclear extract after 4 days by ChIP analysis
[8] = species on record: Homo sapiens; test: Inhibition of NM23-H2 binding to c-Myc G-quadruplex DNA in human SiHa cells assessed as effect on BRCA1 protein expression by Western blot method; assay type: cell-based
[9] = Effect on c-Myc protein expression in mouse primary mesangial cells up to 8 uM by Western blot method; assay type: ADME, cell-based; conditions: primary mesangial cell
[10] = test system: SiHa; test: Inhibition of colony formation in human SiHa cells up to 4 uM after 7 days by crystal violet staining based assay; assay type: functional, cell-based
[11] = species on record: Homo sapiens; test: Inhibition of NM23-H2 binding to c-Myc G-quadruplex DNA in human SiHa cells assessed as effect on cleaved PARP protein expression by Western blot method; assay type: cell-based
[12] = Inhibition of thiazole orange binding to c-Myc Pu18 G-quadruplex DNA (unknown origin) at 10 uM after 30 secs by fluorescence spectrophotometric method
[13] = species on record: Homo sapiens; test: Inhibition of NM23-H2 binding to c-Myc G-quadruplex DNA in human SiHa cells assessed as effect on p15 protein expression by Western blot method; assay type: cell-based
[14] = Transrepression of c-Myc Pu43 G-quadruplex DNA (unknown origin) expressed in human SiHa cells at 6 uM after 48 hrs by luciferase reporter gene assay relative to control; assay type: cell-based
[15] = Transrepression of c-Myc MUT Pu43 DNA (unknown origin) expressed in human SiHa cells up to 8 uM after 48 hrs by luciferase reporter gene assay relative to control; assay type: cell-based
[16] = species on record: Homo sapiens; test: Transrepression of c-Myc G-quadruplex DNA in human SiHa cells at 8 uM after 96 hrs by DAPI staining based immunofluoresence microscopic method; assay type: cell-based
[17] = test system: SiHa; test: Growth inhibition of human SiHa cells after 50 hrs by real time cellular analysis; assay type: functional, cell-based
[18] = test system: SiHa; test: Cytotoxicity against human SiHa cells assessed as reduction in cell viability up to 8 uM after 48 hrs by MTT assay; assay type: cell-based
[19] = species on record: Homo sapiens; test: Inhibition of NM23-H2 binding to c-Myc G-quadruplex DNA in human SiHa cells assessed as effect on p27Kip1 protein expression by Western blot method; assay type: cell-based
[20] = Inhibition of His-tagged NM23-H2 binding to 5'-biotin-labeled c-Myc Pu18 G-quadruplex DNA (unknown origin) after 10 mins by filter binding assay
[21] = Transrepression of c-Myc Pu43 G-quadruplex DNA (unknown origin) expressed in human SiHa cells at 8 uM after 48 hrs by luciferase reporter gene assay relative to control; assay type: cell-based
[22] = Effect on BRCA1 protein expression in mouse primary mesangial cells up to 8 uM by Western blot method; assay type: ADME, cell-based; conditions: primary mesangial cell
[23] = Inhibition of thiazole orange binding to c-Myc Pu27 G-quadruplex DNA (unknown origin) at 10 uM after 30 secs by fluorescence spectrophotometric method
[24] = Inhibition of unwinding activity of His-tagged NM23-H2 to 5'-FAM/3'-TAMRA labeled c-Myc Pu18 G-quadruplex DNA (unknown origin) by FRET assay
[25] = test system: SiHa; test: Effect on NM23-H2 mRNA level in human SiHa cells up to 8 uM after 4 days by RT-PCR method; assay type: functional, cell-based
[26] = species on record: Homo sapiens; test: Inhibition of NM23-H2 binding to c-Myc G-quadruplex DNA in human SiHa cells assessed as downregulation of c-Myc mRNA level after 4 days by RT-PCR method; assay type: cell-based
[27] = Transrepression of c-Myc Pu43 G-quadruplex DNA (unknown origin) expressed in human SiHa cells after 48 hrs by luciferase reporter gene assay; assay type: cell-based
[28] = Induction of G-quadruplex formation in wild type c-Myc Pu43 DNA (unknown origin) in pH 7.4 Tris HCl at 25 uM after overnight incubation in absence of Kcl by CD spectroscopic analysis
[29] = Growth inhibition of mouse primary mesangial cells at 0.25 to 1 times cytotoxic IC50 after 100 hrs by real time cellular analysis; assay type: cell-based; conditions: primary mesangial cell
[30] = Stabilization of 5'-FAM/3'-TAMRA labeled c-Myc Pu18 G-quadruplex DNA (unknown origin) assessed as change in melting temperature at 1 uM after overnight incubation by FRET assay
[31] = species on record: Homo sapiens; test: Inhibition of NM23-H2 binding to c-Myc G-quadruplex DNA in human SiHa cells assessed as effect on cleaved caspase-3 protein expression by Western blot method; assay type: cell-based
[32] = Effect on CDK6 protein expression in mouse primary mesangial cells up to 8 uM by Western blot method; assay type: ADME, cell-based; conditions: primary mesangial cell
[33] = species on record: Homo sapiens; test: Inhibition of NM23-H2 binding to c-Myc G-quadruplex DNA in human SiHa cells assessed as effect on phosphorylated p53 protein expression by Western blot method; assay type: cell-based
[34] = Transrepression of c-Myc Pu43 G-quadruplex DNA (unknown origin) expressed in human SiHa cells at 4 uM after 48 hrs by luciferase reporter gene assay relative to control; assay type: cell-based
[35] = Effect on cleaved caspase-3 protein expression in mouse primary mesangial cells up to 8 uM by Western blot method; assay type: ADME, cell-based; conditions: primary mesangial cell
[36] = Inhibition of His-tagged NM23-H2 binding to 5'-biotin-labeled c-Myc Pu18 ssDNA (unknown origin) after 10 mins by filter binding assay
[37] = species on record: Homo sapiens; test: Inhibition of NM23-H2 binding to c-Myc G-quadruplex DNA in human SiHa cells assessed as downregulation of c-Myc protein expression at 0.5 times cytotoxic IC50 after 4 days by Western blot method; assay type: cell-based
[38] = Transrepression of c-Myc Pu43 G-quadruplex DNA (unknown origin) expressed in human SiHa cells at 2.2 uM after 48 hrs by luciferase reporter gene assay relative to control; assay type: cell-based
[39] = biological target: T1, Cellular tumor antigen p53; test: Effect on p53 phosphorylation in mouse primary mesangial cells up to 2.2 uM by Western blot method; assay type: ADME
[40] = species on record: Homo sapiens; test: Transrepression of c-Myc G-quadruplex DNA in human SiHa cells at 2.2 uM after 96 hrs by DAPI staining based immunofluoresence microscopic method; assay type: cell-based
[41] = Effect on NM23-H2 protein expression in mouse primary mesangial cells up to 2.2 uM by Western blot method; assay type: ADME, cell-based; conditions: primary mesangial cell
[42] = test system: SiHa; test: Growth inhibition of human SiHa cells after 40 hrs by real time cellular analysis; assay type: functional, cell-based
[43] = test system: SiHa; test: Growth inhibition of human SiHa cells transfected with NM23-H2 siRNA up to 4.4 uM after 100 hrs by real time cellular analysis; assay type: functional, cell-based
[44] = test system: SiHa; test: Cytotoxicity against human SiHa cells assessed as reduction in cell viability up to 2.2 uM after 48 hrs by MTT assay; assay type: cell-based
[45] = Transrepression of c-Myc Pu43 G-quadruplex DNA (unknown origin) expressed in human SiHa cells at 1.65 uM after 48 hrs by luciferase reporter gene assay relative to control; assay type: cell-based
[46] = Effect on CDK6 protein expression in mouse primary mesangial cells up to 2.2 uM by Western blot method; assay type: ADME, cell-based; conditions: primary mesangial cell
[47] = test system: SiHa; test: Effect on NM23-H2 protein expression in human SiHa cells up to 2.2 uM after 4 days by Western blot method; assay type: functional, cell-based
[48] = test system: SiHa; test: Inhibition of colony formation in human SiHa cells up to 1.1 uM after 7 days by crystal violet staining based assay; assay type: functional, cell-based
[49] = Effect on BRCA1 protein expression in mouse primary mesangial cells up to 2.2 uM by Western blot method; assay type: ADME, cell-based; conditions: primary mesangial cell
[50] = Effect on c-Myc protein expression in mouse primary mesangial cells up to 2.2 uM by Western blot method; assay type: ADME, cell-based; conditions: primary mesangial cell
[51] = test system: SiHa; test: Effect on NM23-H2 mRNA level in human SiHa cells up to 2.2 uM after 4 days by RT-PCR method; assay type: functional, cell-based
[52] = Transrepression of c-Myc Pu43 G-quadruplex DNA (unknown origin) expressed in human SiHa cells at 1.1 uM after 48 hrs by luciferase reporter gene assay relative to control; assay type: cell-based
[53] = Transrepression of c-Myc MUT Pu43 DNA (unknown origin) expressed in human SiHa cells up to 2.2 uM after 48 hrs by luciferase reporter gene assay relative to control; assay type: cell-based
[54] = Effect on cleaved caspase-3 protein expression in mouse primary mesangial cells up to 2.2 uM by Western blot method; assay type: ADME, cell-based; conditions: primary mesangial cell

T1 sequence (P02340 whole entry): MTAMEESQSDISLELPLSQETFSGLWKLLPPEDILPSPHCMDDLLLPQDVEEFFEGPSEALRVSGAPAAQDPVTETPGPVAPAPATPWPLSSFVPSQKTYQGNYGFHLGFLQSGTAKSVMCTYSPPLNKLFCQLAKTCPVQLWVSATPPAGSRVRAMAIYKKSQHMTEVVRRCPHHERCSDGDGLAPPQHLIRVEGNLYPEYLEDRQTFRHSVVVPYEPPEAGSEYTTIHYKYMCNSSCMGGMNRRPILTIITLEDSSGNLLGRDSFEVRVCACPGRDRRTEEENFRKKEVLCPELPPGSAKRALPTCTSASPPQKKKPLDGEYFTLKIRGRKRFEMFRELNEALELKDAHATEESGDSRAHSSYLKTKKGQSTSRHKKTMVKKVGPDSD

Structure (SMILES): O=C(NCCCN1CCCC1)c1ccc(/C=C2\CCn3c2nc2cc(NCCN4CCCC4)c(F)cc2c3=O)cc1
- Ratio [1]: 4.3
- Activity [2]: Non-Toxic
- Activity [3]: inactive
- inhibition [4]: Dose-dependent effect
- growth inhibition (GI) [5]: inactive
- Activity [6]: Non-Toxic
- inhibition [7]: Dose-dependent effect
- inhibition [8]: Dose-dependent effect
- Activity [9]: Non-Toxic
- inhibition [10]: Active
- inhibition [11]: Dose-dependent effect
- inhibition [12]: Active
- inhibition [13]: Dose-dependent effect
- Activity [14]: 58.6%
- Activity [15]: inactive
- Activity [16]: Active
- growth inhibition (GI) [17]: Dose-dependent effect
- Activity [18]: Non-Toxic
- inhibition [19]: Dose-dependent effect
- inhibition [20]: Active
- Activity [21]: 42.3%
- Activity [22]: Non-Toxic
- inhibition [23]: Active
- inhibition [24]: Active
- Activity [25]: inactive
- inhibition [26]: Dose-dependent effect
- Activity [27]: Dose-dependent effect
- Activity [28]: Active
- growth inhibition (GI) [29]: Non-Toxic
- ΔTm [30]: 12.1 °C
- inhibition [31]: Dose-dependent effect
- Activity [32]: Non-Toxic
- inhibition [33]: Dose-dependent effect
- Activity [34]: 73.4%
- Activity [35]: Non-Toxic
- inhibition [36]: Active
- inhibition [37]: Active

Structure (SMILES): CCN(CC)CCNC(=O)c1ccc(/C=C2\CCn3c2nc2cc(NCCCN4CCCC4)c(F)cc2c3=O)cc1
- Ratio [1]: 3.4
- Activity [38]: 38%
- inhibition [4]: Dose-dependent effect
- Activity [39]: Non-Toxic
- inhibition [7]: Dose-dependent effect
- Activity [40]: Active
- inhibition [8]: Dose-dependent effect
- Activity [41]: Non-Toxic
- inhibition [11]: Dose-dependent effect
- growth inhibition (GI) [42]: Dose-dependent effect
- growth inhibition (GI) [43]: inactive
- inhibition [12]: Active
- inhibition [13]: Dose-dependent effect
- Activity [44]: Non-Toxic
- Activity [45]: 41.4%
- Activity [46]: Non-Toxic
- Activity [47]: inactive
- inhibition [48]: Active
- Activity [49]: Non-Toxic
- inhibition [19]: Dose-dependent effect
- Activity [50]: Non-Toxic
- Activity [51]: inactive
- inhibition [23]: Active
- inhibition [26]: Dose-dependent effect
- Activity [27]: Dose-dependent effect
- Activity [28]: Active
- growth inhibition (GI) [29]: Non-Toxic
- ΔTm [30]: 12.9 °C
- inhibition [31]: Dose-dependent effect
- Activity [52]: 65.7%
- Activity [53]: inactive
- inhibition [33]: Dose-dependent effect
- inhibition [37]: Active
- Activity [54]: Non-Toxic
